# Assay results taken from patent US20220387608A1, “ADRENOMEDULLIN-ANALOGUES FOR LONG-TERM STABILIZATION AND THEIR USE” (Bayer Aktiengesellschaft, priority 2019, published 2022).
# Positions of bridges follow the written chain, without caps; N, C: chain ends. Non-standard residues stand in square brackets, D forms with d. Residues, ends and D or L forms follow the SMILES beside them. *: point of attachment. C18 diacid = O=C(O)CCCCCCCCCCCCCCCCC(=O)*; PEG5 = NCCOCCOCCOCCOCCOCCC(=O)O; Dap = NC[C@H](N)C(=O)O
# Molecular target: T1, AM1R (Homo sapiens, UniProt O60895+Q16602)
# T1 construct: EYFP; ECFP; expressed in transfected cells; host or cells: HEK-293 (transient co-transfection)
# T1 sequence (Q16602 23-461): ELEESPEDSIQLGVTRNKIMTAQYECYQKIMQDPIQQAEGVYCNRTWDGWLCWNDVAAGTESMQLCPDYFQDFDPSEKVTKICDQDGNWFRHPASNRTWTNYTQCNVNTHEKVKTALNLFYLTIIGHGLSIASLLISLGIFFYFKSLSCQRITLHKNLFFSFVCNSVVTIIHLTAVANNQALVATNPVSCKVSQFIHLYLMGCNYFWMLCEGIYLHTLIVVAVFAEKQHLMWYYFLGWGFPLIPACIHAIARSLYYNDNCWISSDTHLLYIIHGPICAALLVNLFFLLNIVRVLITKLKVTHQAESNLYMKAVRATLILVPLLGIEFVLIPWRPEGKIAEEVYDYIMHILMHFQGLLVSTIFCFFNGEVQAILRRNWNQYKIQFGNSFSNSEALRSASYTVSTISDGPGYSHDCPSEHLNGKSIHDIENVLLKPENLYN
# T1 sequence (O60895 43-175): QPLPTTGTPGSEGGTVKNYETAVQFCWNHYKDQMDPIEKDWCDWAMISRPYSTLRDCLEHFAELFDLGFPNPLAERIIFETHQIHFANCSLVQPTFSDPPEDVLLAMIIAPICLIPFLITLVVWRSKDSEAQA
# Experiment: Activity determination in vitro: cAMP/CRE-luciferase reporter assay in HEK293 cells transiently co-transfected with CLR and RAMP2
# Type: cell-based
# Details: for Emax: HEK293, normalized to [G14]ADM(14-52); for EC50: HEK293 with CLR/RAMP2, CRE-luciferase, 3 h stimulation
# Description: (1a) Activity Determination of Adrenomedullin Analogues in vitro
# Cell Culture HEK-293 cells (human embryonic kidney cells) were cultured in Ham's F-12/DMEM (1/1; v/v) containing 15% FCS under humidified atmosphere at 37° C. and 5% CO2 in 75 cm^2 cell culture flasks.
# Cells were cultured in 75 cm^2 flasks to 70-80% confluency. 45 μl Metafectene® Pro was diluted in 900 ρl Ham's F-12/DMEM (1/1; v/v) and incubated for 20 min at room temperature. 9 μg plasmid containing DNA of CLR fused to EYFP and 3 μg plasmid containing DNA of RAMP2 fused to ECFP were dissolved in 900 μl Ham's F-12/DMEM (1/1; v/v). The plasmid solution was mixed with the Metafectene® Pro solution and incubated for 25 min at room temperature. Medium was removed from the cells and replaced by 6 m1 Ham's F-12/DMEM (1/1; v/v) containing 15% FCS. After addition of transfection solution the cells were incubated for 3 h under humidified atmosphere at 37° C. and 5% CO2. For the second transfection 45 μl Metafectene® Pro was diluted in 900 μl Ham's F-12/DMEM (1/1; v/v) and incubated for 20 min at room temperature. 12 μg of pGL4.29[Luc2P/CRE/Hygro] plasmid containing DNA for the luciferase reporter gene luc2P (with CRE promotor region) were dissolved in 900 μl Ham's F-12/DMEM (1/1; v/v). The plasmid solution was mixed with the Metafectene® Pro solution and incubated for 25 min at room temperature. Medium was removed from the cells and replaced by 6 m1 Ham's F-12/DMEM (1/1; v/v) containing 15% FCS. After addition of transfection solution, the cells were incubated under humidified atmosphere at 37° C. and 5% CO2 over night.
# For coating of 96-well-plates, 50 μl of a poly-D-lysine solution in DPBS (0.1 mg/ml) were pipetted in each well and incubated for 40 min. After removal of poly-D-lysine, each well was washed with 50 μl DPBS. Transiently transfected cells were detached from the cell culture flask by removal of the medium, 2-fold washing with 5 m1 DPBS and resuspending in 40 m1 Ham's F-12/DMEM (1/1; v/v) containing 15% FCS. 90,000 to 120,000 cells in 150 μl Ham's F-12/DMEM (1/1; v/v) containing 15% FCS were seeded per well and the plates were incubated under humidified atmosphere at 37° C. and 5% CO2 over night.
# For each ligand, a serial dilution with eight different concentrations was prepared using Ham's F^12/DMEM (1/1; v/v). Before stimulation, the medium on the cells was replaced by 100 μl Ham's F^12/DMEM (1/1; v/v) and the plates were incubated for 1 h under humidified atmosphere at 37° C. and 5% CO2. For stimulation, the medium was removed and the cells were incubated for 3 h in 80 μl of ligand-solution under humidified atmosphere at 37° C. and 5% CO2. In addition 80 μl of a 5 μM forskolin solution in Ham's F-12/DMEM (1/1; v/v) was used as a positive control and 80 μl of Ham's F-12/DMEM (1/1; v/v) as a negative control. Each concentration and the controls were tested as triplicates.
# After 3 h of stimulation, the solutions were removed and the cells were washed with 50 μl of Ham's F-12/DMEM (1/1; v/v) perwell. After 10 m incubation in 30 μl of Ham's F-12/DMEM (1/1; v/v) at room temperature, 30 μl of luciferase-solution (ONE-Glo™ Luciferase Assay System) was added and the luminescence was directly measured using an Infinite M200 (Tecan).
# Data analysis of the luminescence measurement was carried out with GraphPad Prism 5. Therefore, the measured luminescence values of each plate were first corrected on the base of the respective average of forskolin stimulation. Afterwards they were normalized to [G14]ADM(14-52), which was used as standard peptide in every assay. After correction and normalization, data was analyzed using non-linear regression giving dose-response curves for each tested ligand.
Emax [%],EC50 [nM],SMILES
91 ± 1,4.8,"CC[C@H](C)[C@H](NC(=O)[C@H](CCC(N)=O)NC(=O)[C@H](Cc1c[nH]cn1)NC(=O)[C@H](C)NC(=O)[C@H](CC(C)C)NC(=O)[C@H](CCCCN)NC(=O)[C@H](CCC(N)=O)NC(=O)[C@@H](NC(=O)[C@@H](NC(=O)[C@@H]1CSSC[C@H](NC(=O)CNC(=O)CN)C(=O)N[C@@H](CCCNC(=N)N)C(=O)N[C@@H](Cc2ccccc2)C(=O)NCC(=O)N[C@@H]([C@@H](C)O)C(=O)N1)[C@@H](C)O)C(C)C)C(=O)N[C@@H](Cc1ccc(O)cc1)C(=O)N[C@@H](CCC(N)=O)C(=O)N[C@@H](Cc1ccccc1)C(=O)N[C@H](C(=O)N[C@@H](CC(=O)O)C(=O)N[C@@H](CCCCN)C(=O)N[C@@H](CC(=O)O)C(=O)N[C@@H](CCCCN)C(=O)N[C@@H](CC(=O)O)C(=O)N[C@@H](CC(N)=O)C(=O)N[C@H](C(=O)N[C@@H](C)C(=O)N1CCC[C@H]1C(=O)N[C@H]1CC(=O)NCCCC[C@@H](C(=O)N2CCC[C@H]2C(=O)N[C@@H](CCC(N)=O)C(=O)NCC(=O)N[C@@H](Cc2ccc(O)cc2)C(N)=O)NC(=O)[C@H]([C@@H](C)CC)NC(=O)[C@H](CCCCN)NC(=O)[C@H](CO)NC1=O)C(C)C)[C@@H](C)O [Example 2, ((4R,7S,13S,16S,19R)-19-(2-(2-aminoacetamido)acetamido)-13-benzyl-16-(3-guanidinopropyl)-7-((R)-1-hydroxyethyl)-6,9,12,15,18-pentaoxo-1,2-dithia-5,8,11,14,17-pentaazacycloicosane-4-carbonyl)-L-threonyl-ADM(23-43)-((3S,6S,9S,12S,20S)-6-(4-aminobutyl)-12-(λ^2-azaneyl)-3-((S)-sec-butyl)-9-(hydroxymethyl)-2,5,8,11,14-pentaoxo-1,4,7,10,15-pentaazacycloicosane-20-carbonyl)-L-prolyl-ADM(50-52)] (H-GGCRFGTCTVQKLAHQIYQFTDKDKDNVAPDSKIKPQGY-NH2; disulfide 3-8; lactam 31-35)"
89 ± 2,3.4,"CC[C@H](C)[C@H](NC(=O)[C@H](CCC(N)=O)NC(=O)[C@H](Cc1c[nH]cn1)NC(=O)[C@H](C)NC(=O)[C@H](CC(C)C)NC(=O)[C@H](CCCCN)NC(=O)[C@H](CCC(N)=O)NC(=O)[C@@H](NC(=O)[C@@H](NC(=O)[C@@H]1CCC(=O)NC[C@H](NC(=O)CNC(=O)[C@@H](N)CCCCNC(=O)CCCCCCCCCCCCCCCCC(=O)O)C(=O)N[C@@H](CCCNC(=N)N)C(=O)N[C@@H](Cc2ccccc2)C(=O)NCC(=O)N[C@@H]([C@@H](C)O)C(=O)N1)[C@@H](C)O)C(C)C)C(=O)N[C@@H](Cc1ccc(O)cc1)C(=O)N[C@@H](CCC(N)=O)C(=O)N[C@@H](Cc1ccccc1)C(=O)N[C@H](C(=O)N[C@@H](CC(=O)O)C(=O)N[C@@H](CCCCN)C(=O)N[C@@H](CC(=O)O)C(=O)N[C@@H](CCCCN)C(=O)N[C@@H](CC(=O)O)C(=O)N[C@@H](CC(N)=O)C(=O)N[C@H](C(=O)N[C@@H](C)C(=O)N1CCC[C@H]1C(=O)N[C@@H](CCCNC(=N)N)C(=O)N[C@@H](CO)C(=O)N[C@@H](CCCCN)C(=O)N[C@H](C(=O)N[C@@H](CO)C(=O)N1CCC[C@H]1C(=O)N[C@@H](CCC(N)=O)C(=O)NCC(=O)N[C@@H](Cc1ccc(O)cc1)C(N)=O)[C@@H](C)CC)C(C)C)[C@@H](C)O [Example 15, ((3S,9S,12S,15S,21S)-15-(2-((S)-2-amino-6-(17-carboxyoctadecanamido)hexanamido)acetamido)-9-benzyl-12-(3-guanidinopropyl)-3-((R)-1-hydroxyethyl)-2,5,8,11,14,18-hexaoxo-1,4,7,10,13,17-hexaazacyclohenicosane-21-carbonyl)-L-threonyl-ADM(23-52)] (H-K(C18 diacid)G[Dap]RFGTETVQKLAHQIYQFTDKDKDNVAPRSKISPQGY-NH2; lactam 3-8)"
102 ± 3,3.9,"CC[C@H](C)[C@H](NC(=O)[C@H](CCC(N)=O)NC(=O)[C@H](Cc1c[nH]cn1)NC(=O)[C@H](C)NC(=O)[C@H](CC(C)C)NC(=O)[C@H](CCCCN)NC(=O)[C@H](CCC(N)=O)NC(=O)[C@@H](NC(=O)[C@@H](NC(=O)[C@@H]1CSSC[C@H](NC(=O)CNC(=O)CN)C(=O)N[C@@H](CCCNC(=N)N)C(=O)N[C@@H](Cc2ccccc2)C(=O)NCC(=O)N[C@@H]([C@@H](C)O)C(=O)N1)[C@@H](C)O)C(C)C)C(=O)N[C@@H](Cc1ccc(O)cc1)C(=O)N[C@@H](CCC(N)=O)C(=O)N[C@@H](Cc1ccccc1)C(=O)N[C@H](C(=O)N[C@@H](CC(=O)O)C(=O)N[C@@H](CCCCN)C(=O)N[C@@H](CC(=O)O)C(=O)N[C@@H](CCCCN)C(=O)N[C@@H](CC(=O)O)C(=O)N[C@@H](CC(N)=O)C(=O)N[C@H](C(=O)N[C@@H](C)C(=O)N1CCC[C@H]1C(=O)N[C@H]1CCCCNC(=O)C[C@@H](C(=O)N2CCC[C@H]2C(=O)N[C@@H](CCC(N)=O)C(=O)NCC(=O)N[C@@H](Cc2ccc(O)cc2)C(N)=O)NC(=O)[C@H]([C@@H](C)CC)NC(=O)[C@H](CCCCN)NC(=O)[C@H](CO)NC1=O)C(C)C)[C@@H](C)O [Example 1, ((4R,7S,13S,16S,19R)-19-(2-(2-aminoacetamido)acetamido)-13-benzyl-16-(3-guanidinopropyl)-7-((R)-1-hydroxyethyl)-6,9,12,15,18-pentaoxo-1,2-dithia-5,8,11,14,17-pentaazacycloicosane-4-carbonyl)-L-threonyl-ADM(23-43)-((2S,5S,8S,11S,18S)-5-(4-aminobutyl)-18-(λ^2-azaneyl)-8-((S)-sec-butyl)-2-(hydroxymethyl)-3,6,9,13,19-pentaoxo-1,4,7,10,14-pentaazacyclononadecane-11-carbonyl)-L-prolyl-ADM(50-52)] (H-GGCRFGTCTVQKLAHQIYQFTDKDKDNVAPKSKIDPQGY-NH2; disulfide 3-8; lactam 31-35)"
94 ± 2,39,"CC[C@H](C)[C@H](NC(=O)[C@H](CCC(N)=O)NC(=O)[C@H](Cc1c[nH]cn1)NC(=O)[C@H](C)NC(=O)[C@H](CC(C)C)NC(=O)[C@H](CCCCN)NC(=O)[C@H](CCC(N)=O)NC(=O)[C@@H](NC(=O)[C@@H](NC(=O)[C@@H]1CSSC[C@H](NC(=O)CNC(=O)CN)C(=O)N[C@@H](CCCNC(=N)N)C(=O)N[C@@H](Cc2ccccc2)C(=O)NCC(=O)N[C@@H]([C@@H](C)O)C(=O)N1)[C@@H](C)O)C(C)C)C(=O)N[C@@H](Cc1ccc(O)cc1)C(=O)N[C@@H](CCC(N)=O)C(=O)N[C@@H](Cc1ccccc1)C(=O)N[C@H](C(=O)NCCOCCOCCOCCOCCOCCC(=O)N[C@H](C(=O)N[C@@H](C)C(=O)N1CCC[C@H]1C(=O)N[C@@H](CCCNC(=N)N)C(=O)N[C@@H](CO)C(=O)N[C@@H](CCCCN)C(=O)N[C@H](C(=O)N[C@@H](CO)C(=O)N1CCC[C@H]1C(=O)N[C@@H](CCC(N)=O)C(=O)NCC(=O)N[C@@H](Cc1ccc(O)cc1)C(N)=O)[C@@H](C)CC)C(C)C)[C@@H](C)O [Example 11, ((4R,7S,13S,16S,19R)-19-(2-(2-aminoacetamido)acetamido)-13-benzyl-16-(3-guanidinopropyl)-7-((R)-1-hydroxyethyl)-6,9,12,15,18-pentaoxo-1,2-dithia-5,8,11,14,17-pentaazacycloicosane-4-carbonyl)-L-threonyl-ADM(23-34)-(1-(λ^2-azaneyl)-3,6,9,12,15-pentaoxaoctadecan-18-oyl)-L-valyl-ADM(42-52)] (H-GGCRFGTCTVQKLAHQIYQFT[PEG5]VAPRSKISPQGY-NH2; disulfide 3-8)"
